Tested on: HELA cell line
Assay: Capsule cytotoxicity, EZ4U cell proliferation and cytotoxicity assay
Settings: for % Viability 24 h: 24 h incubation; for % Viability 72 h: 72 h incubation
Protocol: The test involved incubating cells from the HELA cell line with the substances against which the cytotoxicity was going to be tested, this test being commonly used as a way to check the toxicity. The tested compounds included the capsules, as well as their main constituents separately: the iron salt used in the capsules (ferric saccharate), and sodium alginate. A negative control, which contained HELA growth medium alone, was also prepared, and used as the reference growth.
The test media were prepared under sterile conditions. Capsules prepared as in Example 1 (Capsule 0; batch 2 of Example 3) were sterilised in an autoclave (20 min, 110° C.). Using sterile material, 72 mg of capsules (capsules medium), 17 mg of ferric saccharate (iron salt medium) and 18 mg of sodium alginate (alginate medium) were each dissolved in 50 mL of HELA growth medium. […] 1:1, 1:10 and 1:100 dilutions of each of the test media were prepared by diluting the following amounts of capsules, iron salt or alginate medium with fresh HELA growth medium: • 1:1 20 μL+0 μL fresh HELA medium • 1:10 2 μL+18 μL fresh HELA medium • 1:100 0.2 μL+19.8 μL fresh HELA medium
3500 HeLa cells were cultured in 36 wells of two 96 well plates: 9 control wells and 27 for triplicates of 3 concentrations of 3 products. Medium was added to each well up to 100 μL. The cells were incubated at 37° C. for 24 h. 20 μL of each test media and 80 μL of fresh medium were added to each well. In the controls only 100 μL of fresh medium were added. One of the plates was incubated for 24 h and the other one for 72 h. The viability of the cells was measured after 24 and 72 h of incubation using the EZ4U non-radioactive cell proliferation and cytotoxicity assay (Biomedica Medizinproducte GmbH).
The results were expressed as percentage of growth with respect to the controls, i. e. as the percentage of viability, which is computed as the number of living cells in any of the test solutions (capsules, ferric saccharate or sodium alginate) divided by the number of living cells in the negative control, and expressed as percentage.

Substance	% Viability 24 h (dilution 1:1, relative to negative control)	% Viability 24 h (dilution 1:10)	% Viability 24 h (dilution 1:100)	% Viability 72 h (dilution 1:1)	% Viability 72 h (dilution 1:10)	% Viability 72 h (dilution 1:100)	cytotoxicity (in words)
ferric saccharate [Iron salt]	76.3% ± 9.7	101.7% ± 8.5	95.7% ± 3.2	66.8% ± 23.0	62.0% ± 15.7	68.7% ± 15.3	–
sodium alginate	–	–	–	–	–	–	No toxicity was observed
